This is an account of results in DBAASP.

Common to all, as to assay: ≥ marks a high value that may be exact or a test limit, other limits are often not marked, values filed in µg/mL are converted to µM
In assay [1] the test system is Bacillus subtilis.
The test system of assay [2] is Escherichia coli.
The test system of assay [3] is Bacillus cereus.
Assay [4] deals with Staphylococcus aureus.

In brackets after ≈: the same amount, converted by molar mass. Where only a bound is given, the exact number is not on record here.

Take `CC[C@H](C)[C@H](N)C(=O)N[C@@H](CC(N)=O)C(=O)N[C@@H](Cc1c[nH]c2ccccc12)C(=O)N[C@@H](CO)C(=O)N[C@@H](CO)C(=O)N[C@H](C(=O)N[C@@H](Cc1ccccc1)C(=O)N[C@@H](CCC(=O)O)C(=O)N[C@@H](CO)C(=O)N[C@H](C(=O)N[C@@H](CO)C(=O)N[C@@H](CC(N)=O)C(=O)N[C@@H](CC(C)C)C(=O)N[C@H](C(N)=O)C(C)C)C(C)C)[C@@H](C)CC` [INWSSIFESVSNLV]: the MIC in assay [1] was at least 100 µM; in assay [2], above 100 µM.

Consider `CC(C)C[C@H](NC(=O)[C@H](CCCCN)NC(=O)[C@H](Cc1ccccc1)NC(=O)[C@@H](NC(=O)[C@@H](NC(=O)CNC(=O)[C@H](CC(C)C)NC(=O)[C@@H](N)Cc1ccccc1)C(C)C)C(C)C)C(=O)N[C@@H](C)C(=O)N[C@@H](CO)C(=O)N[C@@H](CCCCN)C(=O)N[C@H](C(=O)N[C@@H](Cc1ccccc1)C(=O)NCC(=O)N[C@@H](C)C(=O)N[C@H](C(=O)N[C@@H](Cc1ccccc1)C(=O)NCC(=O)N[C@@H](CCCCN)C(=O)N[C@H](C(=O)O)C(C)C)C(C)C)C(C)C` [FLGVVFKLASKVFGAVFGKV], for which the MIC in assay [3] was 7.57 µM (≈ 16 µg/mL); in assay [2], above 121 µM; in assay [4] it was 3.79 µM (≈ 8 µg/mL).

Regarding `CC[C@H](C)[C@H](N)C(=O)N[C@@H](CC(N)=O)C(=O)N[C@@H](Cc1c[nH]c2ccccc12)C(=O)N[C@@H](CCCCN)C(=O)N[C@@H](CCCCN)C(=O)N[C@H](C(=O)N[C@@H](C)C(=O)N[C@@H](CO)C(=O)N[C@H](C(=O)NCC(=O)N[C@@H](CCCCN)C(=O)N[C@@H](CCC(=O)O)C(=O)N[C@H](C(=O)N[C@@H](CC(C)C)C(=O)N[C@@H](CCCCN)C(=O)N[C@@H](C)C(N)=O)C(C)C)[C@@H](C)CC)[C@@H](C)CC` [INWKKIASIGKEVLKA], the MIC in assay [1] was at least 70 µM; in assay [2], 75 µM (≈ 135 µg/mL).

On to `CC[C@H](C)[C@H](NC(=O)[C@H](CC(C)C)NC(=O)[C@H](C)NC(=O)[C@@H]1CCCN1C(=O)[C@H](CC(C)C)NC(=O)CN)C(=O)N[C@@H](CO)C(=O)N[C@@H](Cc1c[nH]c2ccccc12)C(=O)N[C@@H](CO)C(=O)N[C@@H](CCCCN)C(=O)N[C@@H](CCCN=C(N)N)C(=O)N[C@@H](CCCCN)C(=O)N[C@@H](CCCN=C(N)N)C(=O)N[C@@H](CCC(N)=O)C(=O)N[C@@H](CCC(N)=O)C(N)=O` [GLPALISWSKRKRQQ], for which the MIC in assay [1] was at least 40 µM; in assay [2], above 53.4 µM; in assay [4], 53.3 µM (≈ 94.1 µg/mL).

In the case of `CC[C@H](C)[C@H](NC(=O)[C@H](CCCCN)NC(=O)[C@H](CCCCN)NC(=O)[C@H](Cc1c[nH]c2ccccc12)NC(=O)[C@@H](NC(=O)[C@@H](N)CC(N)=O)[C@@H](C)CC)C(=O)N[C@@H](Cc1ccccc1)C(=O)N[C@@H](CCC(=O)O)C(=O)N[C@@H](CCCCN)C(=O)N[C@H](C(=O)N[C@@H](CCCCN)C(=O)N[C@@H](CC(N)=O)C(=O)N[C@@H](CC(C)C)C(=O)N[C@H](C(N)=O)C(C)C)C(C)C` [NIWKKIFEKVKNLV], the MIC in assay [1] worked out at 20 µM (≈ 35.2 µg/mL); in assay [2] it was 25 µM (≈ 44 µg/mL).

For `CC(C)C[C@H](NC(=O)[C@H](CCCCN)NC(=O)[C@H](Cc1ccccc1)NC(=O)[C@@H](NC(=O)[C@H](CCCCN)NC(=O)CNC(=O)[C@H](CC(C)C)NC(=O)[C@@H](N)Cc1ccccc1)C(C)C)C(=O)N[C@@H](C)C(=O)N[C@@H](CO)C(=O)N[C@@H](CCCCN)C(=O)N[C@H](C(=O)N[C@@H](Cc1ccccc1)C(=O)N1CCC[C@H]1C(=O)N[C@@H](CCCCN)C(=O)N[C@H](C(=O)N[C@@H](Cc1ccccc1)C(=O)NCC(=O)N[C@@H](CCCCN)C(=O)N[C@H](C(=O)O)C(C)C)C(C)C)C(C)C` [FLGKVFKLASKVFPKVFGKV], the MIC in assay [3] is 14.3 µM (≈ 32 µg/mL); in assay [2], 7.14 µM (≈ 16 µg/mL); in assay [4], 28.6 µM (≈ 64 µg/mL).

Consider `CC[C@H](C)[C@H](N)C(=O)N[C@@H](CC(N)=O)C(=O)N[C@@H](Cc1ccccc1)C(=O)N[C@@H](CC(C)C)C(=O)N[C@@H](CCCCN)C(=O)N[C@@H](CC(C)C)C(=O)NCC(=O)N[C@@H](CCCCN)C(=O)N[C@@H](CCCCN)C(=O)N[C@H](C(=O)N[C@@H](CC(C)C)C(=O)NCC(=O)N[C@@H](C)C(=O)N[C@@H](CC(C)C)C(N)=O)[C@@H](C)CC` [INFLKLGKKILGAL], for which the values for the MIC in assay [1] and in assay [2] were 22.5 µM (≈ 34.4 µg/mL) and above 100 µM, respectively.

With `CC(C)C[C@H](NC(=O)[C@@H](N)Cc1ccccc1)C(=O)N[C@@H](CCCCN)C(=O)N[C@H](C(=O)N[C@H](C(=O)N[C@@H](Cc1ccccc1)C(=O)N[C@@H](CCCCN)C(=O)N[C@@H](CCCCN)C(=O)N[C@@H](C)C(=O)N[C@@H](CO)C(=O)N[C@@H](CCCCN)C(=O)N[C@H](C(=O)N[C@@H](Cc1ccccc1)C(=O)N1CCC[C@H]1C(=O)N[C@@H](C)C(=O)N[C@H](C(=O)N[C@@H](Cc1ccccc1)C(=O)NCC(=O)N[C@@H](CCCCN)C(=O)N[C@H](C(=O)O)C(C)C)C(C)C)C(C)C)C(C)C)C(C)C` [FLKVVFKKASKVFPAVFGKV], the MIC was at least 57.1 µM in assay [3], 57.1 µM (≈ 128 µg/mL) in assay [2] and above 57.1 µM in assay [4].

As for `CC(C)C[C@H](NC(=O)[C@H](CCCCN)NC(=O)[C@H](Cc1ccccc1)NC(=O)[C@@H](NC(=O)[C@@H](NC(=O)[C@H](CCCCN)NC(=O)[C@H](CC(C)C)NC(=O)[C@@H](N)Cc1ccccc1)C(C)C)C(C)C)C(=O)N[C@@H](C)C(=O)N[C@@H](CO)C(=O)N[C@@H](CCCCN)C(=O)N[C@H](C(=O)N[C@@H](Cc1ccccc1)C(=O)N1CCC[C@H]1C(=O)N[C@@H](C)C(=O)N[C@H](C(=O)N[C@@H](Cc1ccccc1)C(=O)NCC(=O)N[C@@H](CCCCN)C(=O)N[C@H](C(=O)O)C(C)C)C(C)C)C(C)C` [FLKVVFKLASKVFPAVFGKV], the MIC in assay [3] is 7.19 µM (≈ 16 µg/mL); in assay [2] it was 14.4 µM (≈ 32 µg/mL); in assay [4], 1.8 µM (≈ 4 µg/mL).

In the case of `CC[C@H](C)[C@H](N)C(=O)N[C@@H](CC(N)=O)C(=O)N[C@@H](Cc1c[nH]c2ccccc12)C(=O)N[C@@H](CC(C)C)C(=O)N[C@@H](CCCCN)C(=O)N[C@@H](CC(C)C)C(=O)NCC(=O)N[C@@H](CCCCN)C(=O)N[C@@H](CCCCN)C(=O)N[C@H](C(=O)N[C@@H](CC(C)C)C(=O)NCC(=O)N[C@@H](C)C(=O)N[C@H](C(N)=O)[C@@H](C)CC)[C@@H](C)CC` [INWLKLGKKILGAI], the results for the MIC in assay [1] and in assay [2] were 25 µM (≈ 39.2 µg/mL) and 67.5 µM (≈ 106 µg/mL), respectively.

As for `CC(C)C[C@H](NC(=O)[C@H](CCCCN)NC(=O)[C@H](Cc1ccccc1)NC(=O)[C@@H](NC(=O)[C@H](CCCCN)NC(=O)[C@H](CCCCN)NC(=O)[C@H](CC(C)C)NC(=O)[C@@H](N)Cc1ccccc1)C(C)C)C(=O)N[C@@H](C)C(=O)N[C@@H](CO)C(=O)N[C@@H](CCCCN)C(=O)N[C@H](C(=O)N[C@@H](Cc1ccccc1)C(=O)N1CCC[C@H]1C(=O)N[C@@H](C)C(=O)N[C@H](C(=O)N[C@@H](Cc1ccccc1)C(=O)NCC(=O)N[C@@H](CCCCN)C(=O)N[C@H](C(=O)O)C(C)C)C(C)C)C(C)C` [FLKKVFKLASKVFPAVFGKV], the MIC in assay [3] turned out to be 14.2 µM (≈ 32 µg/mL); in assay [2] it was 1.77 µM (≈ 4 µg/mL); in assay [4], 28.4 µM (≈ 64 µg/mL).

The MIC is the lowest concentration found to suppress growth.
